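Where inhibition never reached the appropriate level, the endpoint shown equals the highest concentration tested. Otherwise, values were interpolated linearly from a five-concentration, 48-hour dose response in 96-well plates. At the GI50, growth is halved.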 The source made the active and inactive calls. Rule as the data show it: active = GI50 up to about 1.1 µM and inactive = higher.
What was measured:
Assay in all cases: DTP human tumour cell line panel, 48 h
[1] = system: PC-3
[2] = system: OVCAR-8
[3] = system: A498
[4] = system: EKVX
[5] = system: CCRF-CEM
[6] = system: Malme-3M
[7] = system: UACC-62
[8] = system: SN12C
[9] = system: M14
[10] = system: HCT-15
[11] = system: NCI-H226
[12] = system: COLO 205
[13] = system: MDA-MB-435
[14] = system: HT-29
[15] = system: SNB-19
[16] = system: UACC-257
[17] = system: CAKI-1
[18] = system: SF-539
[19] = system: SK-MEL-2
[20] = system: RXF 393

Structure (SMILES) | GI50 [1] | GI50 [2] | GI50 [3] | GI50 [4] | GI50 [5] | GI50 [6] | GI50 [7] | GI50 [8] | GI50 [9] | GI50 [10] [µM] | GI50 [11] | GI50 [12] | GI50 [13] | GI50 [14] | GI50 [15] | GI50 [16] | GI50 [17] | GI50 [18] | GI50 [19] | GI50 [20]
O=C(O)c1cnc2[nH]ccn2c1=O | > 100 µM (inactive) | > 100 µM (inactive) | > 100 µM (inactive) | > 100 µM (inactive) | > 100 µM (inactive) | > 100 µM (inactive) | > 100 µM (inactive) | > 100 µM (inactive) | > 100 µM (inactive) | > 100 | > 100 µM (inactive) | > 100 µM (inactive) | > 100 µM (inactive) | > 100 µM (inactive) | > 100 µM (inactive) | > 100 µM (inactive) | – | – | – | –
N=C(N)N/N=C/c1c(-c2ccc(Cl)cc2)nc2sc(Cl)cn12 | 3 µM (inactive) | 1.27 µM (inactive) | 1.74 µM (inactive) | 1.85 µM (inactive) | – | – | 1.78 µM (inactive) | 1.77 µM (inactive) | 1.9 µM (inactive) | 1.36 | 1.94 µM (inactive) | 0.923 µM (active) | 1.3 µM (inactive) | 0.646 µM (active) | 1.86 µM (inactive) | 1.8 µM (inactive) | 1.5 µM (inactive) | 1.27 µM (inactive) | 1.71 µM (inactive) | –
OCC(O)COCn1cc(Cn2ncc3c(SCc4ccccc4)ncnc32)nn1 (stereo not drawn) | > 100 µM (inactive) | > 100 µM (inactive) | > 100 µM (inactive) | > 100 µM (inactive) | > 100 µM (inactive) | – | > 100 µM (inactive) | > 100 µM (inactive) | > 100 µM (inactive) | > 100 | > 100 µM (inactive) | > 100 µM (inactive) | > 100 µM (inactive) | > 100 µM (inactive) | > 100 µM (inactive) | > 100 µM (inactive) | > 100 µM (inactive) | > 100 µM (inactive) | > 100 µM (inactive) | –
O=C1C[C@H](c2ccccc2)O[C@@H](c2ccccc2)C1 | > 100 µM (inactive) | > 100 µM (inactive) | – | > 100 µM (inactive) | > 100 µM (inactive) | > 100 µM (inactive) | > 100 µM (inactive) | > 100 µM (inactive) | > 100 µM (inactive) | > 100 | > 100 µM (inactive) | > 100 µM (inactive) | > 100 µM (inactive) | > 100 µM (inactive) | > 100 µM (inactive) | > 100 µM (inactive) | > 100 µM (inactive) | > 100 µM (inactive) | > 100 µM (inactive) | > 100 µM (inactive)
Cc1cc2nc3c(C#N)c4c(c(Nc5ccc(F)cc5)n3c2cc1C)CCC4 | > 100 µM (inactive) | > 100 µM (inactive) | – | > 100 µM (inactive) | > 100 µM (inactive) | 52.2 µM (inactive) | > 100 µM (inactive) | > 100 µM (inactive) | > 100 µM (inactive) | > 100 | > 100 µM (inactive) | > 100 µM (inactive) | > 100 µM (inactive) | > 100 µM (inactive) | > 100 µM (inactive) | > 100 µM (inactive) | > 100 µM (inactive) | > 100 µM (inactive) | > 100 µM (inactive) | > 100 µM (inactive)
O=[N+]([O-])c1ccc2c(/N=N/c3c(O)ccc4ccccc34)c(O)cc(S(=O)(=O)O)c2c1 | 6.98 µM (inactive) | 5.28 µM (inactive) | – | > 50 µM (inactive) | 0.869 µM (active) | 4.06 µM (inactive) | 2.51 µM (inactive) | 25.6 µM (inactive) | 4.07 µM (inactive) | 4.62 | 17.5 µM (inactive) | 18.3 µM (inactive) | 7.98 µM (inactive) | 25.4 µM (inactive) | 15 µM (inactive) | 20 µM (inactive) | 4.86 µM (inactive) | 16.5 µM (inactive) | 14.2 µM (inactive) | 14.8 µM (inactive)

Reference: ChEMBL document CHEMBL1201862, “PubChem BioAssay data set” (2004)
